Assay results from publication PMC5699210 (Bioorganic & medicinal chemistry letters, 2011).
“Also recorded” adds a separate entry of the source.

Tested on: rats with inflammation of the dura
Test: Rat model of migraine pain
Type: in vivo
Conditions: oral 30 mg/kg

**Q.** What does the source list for `CN1CCC[C@@H]1CCn1ccc2ccc(NC(=N)c3cccs3)cc21.Cl.Cl` [(R)-8]?
**A.** tactile hyperesthesia (allodynia) of the hindpaw (15 min prior to the inflammatory soup, 30 mg/kg): attenuated the development of allodynia between 2 and 6 h post-dose; also recorded: attenuates the tactile hyperesthesia (allodynia); also recorded: reduce tactile hyperesthesia (allodynia); time of maximum effect on allodynia (post-dose): 4 h
